Laboratory results reported in patent publication US10149855B2, “Gamma-secretase inhibition reduce APOC3 levels and plasma triglycerides” (THE TRUSTEES OF COLUMBIA UNIVERSITY IN THE CITY OF NEW YORK, priority 2014, dated 2018).

Experiments:
mice [1] = experiment: Triglyceride secretion after lipoprotein lipase inhibition with Poloxamer 407; assay type: in vivo; conditions: plasma TG after lipoprotein lipase inhibition with Poloxamer 407 (FIG. 7)
Excerpt: DBZ-induced lower plasma TG in diet-induced obese (DIO) and leptin-deficient obese (ob/ob) mice is in the VLDL fraction. […] To differentiate these—we created a liver-specific gamma-secretase knockout mouse.

[2] = tested on: Lean mice, diet induced obese (DIO) mice, and leptin-deficient obese (ob/ob) mice; experiment: Weight, glucose and insulin of mice administered GSI (DBZ) or vehicle; assay type: in vivo
Procedure: Lean mice, diet induced obese (DIO) mice, and leptin-deficient obese (ob/ob) mice were administered either vehicle or GSI. [table]

ApoC3 = experiment: Plasma ApoC3 levels in GSI-treated mice; assay type: in vivo
Excerpt: (§1) Plasma triglyceride lowering in genetic (leptin deficient ob/ob mice) or diet-induced mouse models of obesity was even more profound, with reductions approaching 75% of vehicle-treated animals. […] L-Ncst mice had similar reductions in plasma triglyceride as GSI-treated mice, proof that the mechanism of GSI-induced reduction in plasma triglyceride is through effects on liver. L-Ncst mice had approximately 40% reduced plasma triglyceride as compared to control mice when fed normal chow, but this rises to a staggering 70% reduction when mice were challenged with high-fat diet feeding. […] As such, gamma-secretase inhibition with GSIs or liver-specific gamma-secretase blockers would be predicted to have a greater, and perhaps synergistic, effect in reducing plasma triglyceride as compared to drugs that solely target ApoC3 expression.

DIO mice = experiment: Fasted/refed plasma glucose and glucose clearance in GSI-treated mice; assay type: in vivo; conditions: compared to vehicle (FIG. 3 Panel A)
[3] = tested on: lean, diet-induced obese (DIO) and leptin-deficient obese (ob/ob) mice; experiment: Plasma/serum triglyceride levels in mice treated with GSI or vehicle; assay type: in vivo
Procedure: as §1, with “Mice were administered GSI or vehicle alone to determine the effect of GSI treatment on serum triglyceride levels. […] Plasma” for “Plasma”

mice [4] = conditions: mouse, in vivo
Nicastrin = experiment: shRNA-mediated knockdown of Nicastrin, ApoC3 secretion; assay type: cell-based; conditions: mouse hepatocytes (FIG. 25)

| Compound | TG secretion (mice [1]) | Glucose ([2]; DIO mice) | Insulin ([2]; DIO mice) | Glucose ([2]; lean mice) | Insulin ([2]; lean mice) | Glucose ([2]; ob/ob mice) | Insulin ([2]; ob/ob mice) | plasma ApoC3 levels (ApoC3) | fasted and refed glucose (DIO mice) | triglycerides in VLDL, LDL and HDL fractions ([3]; DIO and ob/ob mice (FIG. 5)) | plasma triglyceride ([3]; lean mice) | plasma triglyceride reduction ([3]; ob/ob or diet-induced obese mice, relative to vehicle-treated animals) | plasma triglyceride (TG) ([3]; obese mice (DIO and ob/ob), compared to vehicle (FIG. 4)) | gastrointestinal (GI) toxicity (mice [4]) | ApoC3 secretion (Nicastrin) |
| --- | --- | --- | --- | --- | --- | --- | --- | --- | --- | --- | --- | --- | --- | --- | --- |
| C[C@H](NC(=O)Cc1cc(F)cc(F)c1)C(=O)N[C@@H]1C(=O)N(C)c2ccccc2-c2ccccc21 [GSI, N-[(1S)-2-[[(7S)-6,7-dihydro-5-methyl-6-oxo-5H-dibenz[b,d]azepin-7-yl]amino]-1-methyl-2-oxoethyl]-3,5-difluoro-benzeneacetamide] | does not affect TG secretion | 72 ± 5 mg/dL | 1.33 ± 0.32 ng/mL | 64 ± 2 mg/dL | 0.49 ± 0.04 ng/mL | 98 ± 6 mg/dL | 15.6 ± 3.25 ng/mL | markedly and proportionately reduced | reduced both fasted as well as refed (or exogenous) glucose | lowered triglycerides in the VLDL fraction | reduces plasma triglyceride in a dose-dependent manner | ~75% | lower plasma triglyceride | not associated with apparent gastrointestinal (GI) toxicity |  |
| SEQ ID NO. 59: shRNA for knockdown of Nicastrin, sequence CTCCTTCCACAATCGGTATTA (listed as DNA, chemistry not fully specified; listed as Rattus norvegicus) |  |  |  |  |  |  |  |  |  |  |  |  |  |  | reduces ApoC3 secretion |
